We go through 9 compounds from PubChem BioAssay (NCI).

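Five compound concentrations were applied to cells in 96-well plates for 48 hours; endpoints were derived by simple linear interpolation of the resulting dose-response curve. GI50 marks 50% less growth. Definition used: TGI = concentration required for complete inhibition of growth.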

Some test systems named below: NCI-H522 lung; OVCAR-8 ovarian; SK-MEL-2 melanoma; A498 renal; OVCAR-4 ovarian; SF-295 CNS; HOP-62 NSCLC; M14 melanoma.
Holding throughout (assay): NCI tumour cell line growth inhibition, 48 h

In the case of `O=C1CC(c2c[nH]c3ccc(F)cc23)C(=O)N1` (stereo unspecified), the GI50 with NCI-H522 lung, with OVCAR-8 ovarian, in the experiment on SK-MEL-2 melanoma, in the experiment on A498 renal, with OVCAR-4 ovarian and in the experiment on SF-295 CNS was greater than 100 µM throughout. Moreover, the GI50 in the experiment on HOP-62 NSCLC and in the experiment with M14 melanoma was greater than 100 µM throughout. Moreover, the TGI in the experiment with NCI-H522 lung, in the experiment with OVCAR-8 ovarian, in the experiment on SK-MEL-2 melanoma, in the experiment on A498 renal, with OVCAR-4 ovarian and with SF-295 CNS was greater than 100 µM throughout. Moreover, the TGI with HOP-62 NSCLC and in the experiment on M14 melanoma was greater than 100 µM throughout.
With `O=C1/C(=C/c2ccc(Cl)c(Cl)c2)CN(C(=O)C(Cl)Cl)C/C1=C\c1ccc(Cl)c(Cl)c1`, the GI50 was 0.27 µM in the experiment on NCI-H522 lung; 0.0505 µM in the experiment with OVCAR-8 ovarian; 0.801 µM in the experiment on SK-MEL-2 melanoma; 0.216 µM in the experiment with A498 renal; 0.0743 µM in the experiment with OVCAR-4 ovarian; 0.154 µM in the experiment on SF-295 CNS. The GI50 in the experiment on HOP-62 NSCLC is 0.271 µM; in the experiment on M14 melanoma it was 0.206 µM. For the same compound, the TGI worked out at 1.2 µM in the experiment with NCI-H522 lung; 1.51 µM in the experiment with OVCAR-8 ovarian; 3.14 µM in the experiment on SK-MEL-2 melanoma; 0.664 µM in the experiment with A498 renal; 1.49 µM with OVCAR-4 ovarian; 0.704 µM in the experiment with SF-295 CNS. The TGI was determined as 0.972 µM with HOP-62 NSCLC and 0.587 µM in the experiment on M14 melanoma.
For the compound `O=C1Nc2ccc(Br)cc2C12CC(c1ccccc1)=NN2` (stereo unspecified), the GI50 was 3.56 µM with NCI-H522 lung; 5.7 µM in the experiment on OVCAR-8 ovarian; 4.48 µM in the experiment with SK-MEL-2 melanoma; 2.24 µM in the experiment with A498 renal; 5.31 µM in the experiment with OVCAR-4 ovarian; 2.77 µM in the experiment with SF-295 CNS. The GI50 in the experiment on HOP-62 NSCLC was 6.17 µM; with M14 melanoma it was 3.25 µM. Further, the TGI was determined as 9.43 µM in the experiment on NCI-H522 lung; 39.2 µM with OVCAR-8 ovarian; 25.6 µM in the experiment on SK-MEL-2 melanoma; 8.38 µM in the experiment with A498 renal; 77.6 µM in the experiment with OVCAR-4 ovarian; 9.5 µM with SF-295 CNS. Moreover, the TGI with HOP-62 NSCLC and with M14 melanoma was greater than 100 µM each time.
For the compound `COc1cc(/C=C2\C(=O)N(Cc3ccc(Cl)cc3)c3ccccc32)cc(OC)c1OC`, the GI50 was 2.2 µM with NCI-H522 lung; 3.4 µM with OVCAR-8 ovarian; 4.86 µM in the experiment on SK-MEL-2 melanoma; 1.54 µM in the experiment with A498 renal; 4.35 µM with OVCAR-4 ovarian; 4.41 µM in the experiment on SF-295 CNS. The values for the GI50 in the experiment with HOP-62 NSCLC and in the experiment with M14 melanoma were 3.72 µM and 2.45 µM, respectively. Besides, the TGI with NCI-H522 lung was 5.93 µM; in the experiment on OVCAR-8 ovarian, greater than 45.2 µM; in the experiment with SK-MEL-2 melanoma, 18 µM; in the experiment on A498 renal, 7.97 µM; in the experiment with OVCAR-4 ovarian, greater than 49.6 µM; in the experiment on SF-295 CNS, 32.3 µM. The TGI in the experiment on HOP-62 NSCLC was 12.5 µM; with M14 melanoma it was 7.01 µM.
On to `CN(C)c1ccc(/C=C\c2ccnc3ccccc23)cc1`, for which the GI50 in the experiment on NCI-H522 lung was 6.4 µM; with OVCAR-8 ovarian, 5.26 µM; in the experiment on SK-MEL-2 melanoma, 21.2 µM; in the experiment on A498 renal, 7.57 µM; in the experiment with OVCAR-4 ovarian, 9.77 µM; in the experiment on SF-295 CNS, 3.56 µM. The GI50 with HOP-62 NSCLC is 7.5 µM; in the experiment on M14 melanoma, 4.42 µM. Moreover, the TGI is greater than 100 µM with NCI-H522 lung; greater than 100 µM in the experiment on OVCAR-8 ovarian; greater than 100 µM in the experiment with SK-MEL-2 melanoma; greater than 26.7 µM with A498 renal; greater than 100 µM with OVCAR-4 ovarian; greater than 44.7 µM in the experiment on SF-295 CNS. For the same compound, the values for the TGI in the experiment on HOP-62 NSCLC and with M14 melanoma were greater than 67.9 µM and greater than 66 µM, respectively.
For the compound `c1ccc(-c2oc(-c3ccccc3)c(CN3CCCCC3)c2CN2CCCCC2)cc1`, the GI50 in the experiment with NCI-H522 lung is 2.47 µM; in the experiment on OVCAR-8 ovarian, 3.91 µM; in the experiment with SK-MEL-2 melanoma, 3.72 µM; with A498 renal, 2.41 µM; in the experiment on OVCAR-4 ovarian, 2.65 µM; in the experiment with SF-295 CNS, 2.05 µM. The GI50 is 4.69 µM in the experiment on HOP-62 NSCLC and 1.83 µM with M14 melanoma. The TGI worked out at 11.7 µM in the experiment on NCI-H522 lung; 17.1 µM in the experiment on OVCAR-8 ovarian; 15.7 µM in the experiment on SK-MEL-2 melanoma; 11.8 µM in the experiment with A498 renal; 13.6 µM in the experiment on OVCAR-4 ovarian; 6.58 µM with SF-295 CNS. Further, the TGI turned out to be 21.8 µM in the experiment with HOP-62 NSCLC and 4.25 µM in the experiment with M14 melanoma.
With `CSc1ccc(C2=C(c3ccccc3)C(=O)OC2)cc1`, the GI50 was 0.619 µM in the experiment with NCI-H522 lung; 0.639 µM in the experiment with OVCAR-8 ovarian; 1.64 µM with SK-MEL-2 melanoma; 3.13 µM in the experiment with A498 renal; 21.2 µM in the experiment with OVCAR-4 ovarian; 0.597 µM with SF-295 CNS. Besides, the GI50 was 1.96 µM in the experiment with HOP-62 NSCLC and 0.483 µM in the experiment with M14 melanoma. Moreover, the TGI was 2.45 µM in the experiment on NCI-H522 lung; greater than 100 µM with OVCAR-8 ovarian; greater than 100 µM in the experiment on SK-MEL-2 melanoma; 13.9 µM with A498 renal; greater than 100 µM in the experiment on OVCAR-4 ovarian; 1.98 µM with SF-295 CNS. For the same compound, the TGI with HOP-62 NSCLC is greater than 70 µM; in the experiment on M14 melanoma, greater than 46.1 µM.
Take `COc1ccc(-c2cc(=O)c3c(O)c(OC)c(OC)c(OC)c3o2)cc1OC`: the TGI in the experiment with NCI-H522 lung was 43.9 µM; with OVCAR-8 ovarian, greater than 100 µM; with SK-MEL-2 melanoma, greater than 100 µM; in the experiment on A498 renal it was greater than 100 µM; in the experiment with OVCAR-4 ovarian it was greater than 100 µM; in the experiment with SF-295 CNS it was greater than 100 µM. Moreover, the TGI in the experiment on HOP-62 NSCLC is 82.9 µM; in the experiment with M14 melanoma it was greater than 100 µM.
Turning to `COc1ccc(C(O)c2cc3c(N)c(C(=O)Nc4ccc(Cl)cc4)sc3nc2C)cc1` (stereo unspecified), the GI50 in the experiment with NCI-H522 lung was 4.05 µM; in the experiment with OVCAR-8 ovarian it was 4.02 µM; with SK-MEL-2 melanoma, 8.6 µM; in the experiment on A498 renal, 3 µM; in the experiment on OVCAR-4 ovarian, 2.42 µM; in the experiment on SF-295 CNS, 2.14 µM. In addition, the GI50 in the experiment with HOP-62 NSCLC is 3.24 µM; in the experiment on M14 melanoma it was 1.74 µM. Besides, the TGI with NCI-H522 lung was determined as 38.1 µM; with OVCAR-8 ovarian it was 26.7 µM; in the experiment on SK-MEL-2 melanoma it was 69.6 µM; in the experiment on A498 renal, 12.4 µM; in the experiment with OVCAR-4 ovarian, 7.47 µM; with SF-295 CNS, 11.6 µM. The TGI in the experiment on HOP-62 NSCLC was 19.2 µM; in the experiment on M14 melanoma, 29.9 µM.
